Test results reported in patent US20250049737A1, “Lauflumide and derivatives thereof for treating chronic fatigue syndrome and myalgic encephalomyelitis/chronic fatigue syndrome (ME/CFS)” (NLS Pharmaceutics AG, priority 2021, published 2025).
Entries after “also recorded” stand apart in the source; their conditions may differ.

Columns and labels:
[1] = molecular target: T1, DAT (h) (antagonist radioligand) (Homo sapiens, UniProt Q01959); assay: Radioligand binding panel (Eurofins CEREP), DAT; conditions: % inhibition of control specific binding
T1 construct: Eurofins CEREP (contract study 100014859)
Procedure: (§1) Lauflumide is tested at 10^-5 M, calculated as a % inhibition of control specific binding of a radioactively labeled ligand specific for each target.
(§2) This binding profile panel was broadly defined with roughly an equal number of selective, central and peripheral therapeutically relevant targets, including native animal tissues, radioligands and specific enzymes involved in cell cycle regulation in accordance with Eurofins Standard Operating Procedure (www.eurofins.fr).
(§3) For radioligand binding experiments, the half maximal inhibitory concentration (IC50) and the half maximal effective concentration (EC50) values were determined (via computer software) by nonlinear regression analysis of the competition curves using Hill equation curve fitting. The inhibition constants (Ki) were calculated using the Cheng-Prusoff equation (Ki=IC50/(1+(L/KD)), where L is the concentration of radioligand in the assay, and KD is the affinity of the radioligand for the receptor.
(§4) The results are expressed as a % control specific binding ([measured specific binding/control specific binding]×100) and as a % inhibition of control specific binding (100−[(measured specific binding/control specific binding)×100]) obtained in the presence of the test compounds. […]

[2] = molecular target: T2, Histamine 2 (h) (H2) (agonist radioligand) (Homo sapiens, UniProt P25021); assay: Radioligand binding panel (Eurofins CEREP), histamine H2; conditions: % inhibition of control specific binding
T2 construct: Eurofins CEREP (contract study 100014859)
Procedure: as §1, §2, §3, §4

[3] = tested on: Rat model of severe fatigue; assay: Rat model of severe fatigue (sleep deprivation): recording of circadian locomotor activity; type: in vivo, Rats, Sprague-Dawley; conditions: for Period after administration during which the distance travelled was dramatically increased: 2-h period analysis; for Distance travelled during the 12-h dark phase / Total distance travelled during the full 24-h period / Difference of distance travelled between the dark phase and the light phase / Distance travelled during the 12-h light phase: days 1, 2 and 3
Procedure: In the following example, Lauflumide is also called NLS-4.
Animals are individually housed in transparent polycarbonate cages (1354G Eurostandard Type IV cage, Tecniplast, Italy, 595×380×200 mm, floor area=1820 cm^2) filled with water (23±1° C.) to a height of 1.5 cm. A platform (5 cm height, 6.5 cm diameter) was located at the center of the cage. Animals can stay on the platform in order to stay dry but falls from it when it falls in deep sleep. […] During this period, animals were placed in a modified light/dark cycle with variable durations of the light and dark periods which change every day. This procedure is intended to disrupt the circadian rhythm.
The Sham group was housed in normal condition for the same period under a 12/12 h light/dark cycle.
After the end of the fatigue period, animals were placed in transparent polycarbonate cages (Type E, Iffa Credo, France, 450×300×200 mm, floor area=1032 cm^2), under a 12 h/12 h cycle. Cages were covered with a stainless steel grid in which food and a bottle are placed. A stainless steel removable divider separated food and water. The cages were placed in infrared photobeam detection systems (Acti-track, LSI Leticca, Panlab) allowing to record continuously the distance travelled in the cage. Locomotor activity was recorded continuously for 3 days. The test started at the beginning of the dark phase of the light/dark cycle.
Seventy-six animals were subjected to the fatigue procedure and to the tests as described above. Twelve animals (Sham group) were housed in standard condition.
After the end of the Fatigue procedure, animals were divided into 10 groups which received before tests (total: 3 administrations) a per-os (p.o., oral gavage) administration of: • Sham (no fatigue) group (N=12): Vehicle. • Control group (N=11): Vehicle. • Modafinil 32 (N=10): modafinil (32 mg/kg). • Modafinil 64 (N=10): modafinil (64 mg/kg). • Modafinil 128 (N=5): modafinil (128 mg/kg). • NLS-4 16 (N=5): NLS-4 (16 mg/kg). • NLS-4 32 (N=10): NLS-4 (32 mg/kg). • NLS-4 64 (N=10): NLS-4 (64 mg/kg). • NLS-4 128 (N=10): NLS-4 (128 mg/kg). • NLS-4 256 (N=5): NLS-4 (256 mg/kg).
Read-out: distance travelled during 24-h periods, 12-h dark and light periods and during 2-h periods.
Data are expressed as mean and standard error of mean (SEM).
Statistical analyses: Student's t test, repeated measure ANOVA.
A difference is considered statistically significant at p≤0.05.

impulsivity = assay: Impulsivity; type: in vivo; conditions: three doses tested; compared with modafinil
[4] = 16 mg/kg p.o., vs. Control (fatigue) group
[5] = 16 mg/kg p.o., vs. Modafinil 32 group (32 mg/kg)
[6] = 16 mg/kg p.o., vs. Modafinil 64 group (64 mg/kg)
[7] = 16 mg/kg p.o., vs. Sham (no fatigue) group, listed as NLS-4
[8] = 32 mg/kg p.o., vs. Control (fatigue) group
[9] = 32 mg/kg p.o., vs. Sham (no fatigue) group
[10] = 64 mg/kg p.o., vs. Control (fatigue) group
[11] = 64 mg/kg p.o., vs. Sham (no fatigue) group
[12] = 128 mg/kg p.o., vs. Control (fatigue) group
[13] = 128 mg/kg p.o., vs. Sham (no fatigue) group
[14] = 256 mg/kg p.o., vs. Control (fatigue) group
[15] = 256 mg/kg p.o., vs. Sham (no fatigue) group

T2 sequence (P25021 whole entry): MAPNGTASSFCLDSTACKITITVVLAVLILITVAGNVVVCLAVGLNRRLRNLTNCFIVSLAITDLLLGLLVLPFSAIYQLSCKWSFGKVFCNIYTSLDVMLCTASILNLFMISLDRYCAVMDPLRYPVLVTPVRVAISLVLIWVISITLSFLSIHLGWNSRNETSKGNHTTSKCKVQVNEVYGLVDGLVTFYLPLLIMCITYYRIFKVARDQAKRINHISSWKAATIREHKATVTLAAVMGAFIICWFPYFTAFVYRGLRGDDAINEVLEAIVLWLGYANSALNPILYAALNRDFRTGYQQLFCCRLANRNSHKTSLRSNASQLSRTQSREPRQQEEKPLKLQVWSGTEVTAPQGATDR
T1 sequence (Q01959 whole entry): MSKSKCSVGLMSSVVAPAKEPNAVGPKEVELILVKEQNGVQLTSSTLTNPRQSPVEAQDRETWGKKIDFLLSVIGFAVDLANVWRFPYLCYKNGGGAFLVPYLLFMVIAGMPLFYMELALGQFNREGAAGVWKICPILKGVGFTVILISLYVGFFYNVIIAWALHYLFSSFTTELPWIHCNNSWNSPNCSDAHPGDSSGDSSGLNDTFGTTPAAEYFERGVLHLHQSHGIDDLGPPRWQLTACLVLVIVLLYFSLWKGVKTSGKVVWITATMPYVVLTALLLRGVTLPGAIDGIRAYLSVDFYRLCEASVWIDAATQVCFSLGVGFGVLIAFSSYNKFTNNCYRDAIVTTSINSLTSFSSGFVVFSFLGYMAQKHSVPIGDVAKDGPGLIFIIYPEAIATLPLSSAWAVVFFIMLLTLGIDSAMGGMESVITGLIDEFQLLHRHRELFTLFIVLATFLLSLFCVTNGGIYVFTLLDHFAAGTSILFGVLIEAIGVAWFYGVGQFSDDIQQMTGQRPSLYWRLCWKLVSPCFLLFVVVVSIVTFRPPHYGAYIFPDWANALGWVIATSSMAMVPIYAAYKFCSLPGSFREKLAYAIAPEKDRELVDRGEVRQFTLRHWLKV

NC(=O)C[S@@+]([O-])C(c1ccc(F)cc1)c1ccc(F)cc1 [Lauflumide, 2-[(R)-((bis(4-fluorophenyl)methane)sulfinyl)]acetamide]
% Inhibition at 10^−5M [1]: 84.4%
% Inhibition at 10^−5M [2]: 46.6%
Dose reducing the impairment of circadian rhythm, relative to modafinil ([3]; 16 mg/kg NLS-4 vs. 64 mg/kg modafinil): four times lower
Increase in locomotor activity compared with modafinil (32 mg/kg) ([3]; 16 mg/kg p.o.): significantly higher
Increase in locomotor activity compared with modafinil (64 mg/kg) ([3]; 16 mg/kg p.o.): of the same magnitude
Motor activity during the first 2-h periods following the dosing ([3]; 16 mg/kg p.o.): increased
Period after administration during which the distance travelled was dramatically increased ([3]; 16 mg/kg p.o.): 2 h
Distance travelled during the 12-h dark phase [3, 4]: higher
Total distance travelled during the full 24-h period [3, 4]: higher
Difference of distance travelled between the dark phase and the light phase ([3]; 16 mg/kg p.o., vs. Control (fatigue) group, listed as NLS-4): higher or tended to be higher; also recorded: increased
Difference of distance travelled between the dark phase and the light phase [3, 5]: higher than the Modafinil 32 group on days 2 and 3 only
Distance travelled during the 12-h light phase [3, 5]: higher than the Modafinil 32 group during the dark period on day 3 only and during the light period on day 1 only
Total distance travelled during the full 24-h period [3, 5]: higher than the Modafinil 32 group on day 3 only
Difference of distance travelled between the dark phase and the light phase [3, 6]: not significantly different
Distance travelled during the 12-h dark phase [3, 6]: not significantly different
Distance travelled during the 12-h light phase [3, 6]: not significantly different
Total distance travelled during the full 24-h period [3, 6]: not significantly different
Total distance travelled during the full 24-h period ([3]; 16 mg/kg p.o., vs. Sham (no fatigue) group): not significantly different
Difference of distance travelled between the dark phase and the light phase [3, 7]: increased the distance travelled in comparison with the Sham group during day 3 only; also recorded: higher than the Sham group on day 3 only
Distance travelled during the 12-h dark phase [3, 7]: increased the distance travelled in comparison with the Sham group during the light phase on day 1 and during the dark phase on day 3; also recorded: higher than the Sham group during the dark period on day 3 only
Distance travelled during the 12-h light phase [3, 7]: increased the distance travelled in comparison with the Sham group during the light phase on day 1 and during the dark phase on day 3; also recorded: higher than the Control group during the light periods on day 1 only
Period after administration during which the distance travelled was dramatically increased ([3]; 32 mg/kg p.o.): 8 h
Distance travelled during the 12-h dark phase [3, 8]: higher
Distance travelled during the 12-h light phase [3, 8]: not significantly different
Total distance travelled during the full 24-h period [3, 8]: higher
Difference of distance travelled between the dark phase and the light phase ([3]; 32 mg/kg p.o., vs. Control (fatigue) group, listed as NLS-4): higher or tended to be higher; also recorded: increased
Difference of distance travelled between the dark phase and the light phase [3, 9]: increased the distance travelled in comparison with the Sham group during day 3 only
Distance travelled during the 12-h dark phase [3, 9]: increased the distance travelled in comparison with the Sham group during the light phase on days 1, 2 and 3, and during the dark phase on days 2 and 3
Distance travelled during the 12-h light phase [3, 9]: increased the distance travelled in comparison with the Sham group during the light phase on days 1, 2 and 3, and during the dark phase on days 2 and 3
Total distance travelled during the full 24-h period [3, 9]: increased the distance travelled in comparison with the Sham group during days 1, 2 and 3
Distance travelled during the 12-h dark phase [3, 10]: higher
Distance travelled during the 12-h light phase [3, 10]: higher for the NLS-4 64 group than for the Control group during the dark phase on days 1, 2 and 3 and during the light phase on day 3 only
Total distance travelled during the full 24-h period [3, 10]: higher
Difference of distance travelled between the dark phase and the light phase ([3]; 64 mg/kg p.o., vs. Control (fatigue) group, listed as NLS-4): higher or tended to be higher; also recorded: increased
Distance travelled during the 12-h dark phase [3, 11]: increased the distance travelled in comparison with the Sham group during both the dark and light phase on days 1, 2 and 3
Distance travelled during the 12-h light phase [3, 11]: increased the distance travelled in comparison with the Sham group during both the dark and light phase on days 1, 2 and 3
Total distance travelled during the full 24-h period [3, 11]: increased the distance travelled in comparison with the Sham group during days 1, 2 and 3
Distance travelled during the 12-h dark phase [3, 12]: higher
Distance travelled during the 12-h light phase [3, 12]: higher
Total distance travelled during the full 24-h period [3, 12]: higher
Difference of distance travelled between the dark phase and the light phase ([3]; 128 mg/kg p.o., vs. Control (fatigue) group, listed as NLS-4): higher or tended to be higher; also recorded: increased
Distance travelled during the 12-h dark phase [3, 13]: increased the distance travelled in comparison with the Sham group during both the dark and light phase on days 1, 2 and 3
Distance travelled during the 12-h light phase [3, 13]: increased the distance travelled in comparison with the Sham group during both the dark and light phase on days 1, 2 and 3
Total distance travelled during the full 24-h period [3, 13]: increased the distance travelled in comparison with the Sham group during days 1, 2 and 3
Distance travelled during the 12-h dark phase [3, 14]: higher
Distance travelled during the 12-h light phase [3, 14]: higher
Total distance travelled during the full 24-h period [3, 14]: higher
Difference of distance travelled between the dark phase and the light phase ([3]; 256 mg/kg p.o., vs. Control (fatigue) group, listed as NLS-4): higher or tended to be higher; also recorded: increased
Difference of distance travelled between the dark phase and the light phase [3, 15]: increased the distance travelled in comparison with the Sham group during day 3 only
Distance travelled during the 12-h dark phase [3, 15]: increased the distance travelled in comparison with the Sham group during both the dark and light phase on days 1, 2 and 3
Distance travelled during the 12-h light phase [3, 15]: increased the distance travelled in comparison with the Sham group during both the dark and light phase on days 1, 2 and 3
Total distance travelled during the full 24-h period [3, 15]: increased the distance travelled in comparison with the Sham group during days 1, 2 and 3
Distance travelled during the dark phase (2-h period analysis), dose relation ([3]; 16-256 mg/kg p.o.): dose-dependently increased
Period after administration during which the distance travelled was dramatically increased ([3]; 64-256 mg/kg p.o.): 10 h
Impulsivity (impulsivity): improved impulsivity at the three doses tested with a better significant response than modafinil
